In patent US20010055590A1, “Method for enhancing myoblast migration and invasion in the context of gene therapy” (priority 1999, published 2001):

B1: purified human plasmin (protein, UniProt P00747 20-580; P00747 581-810, looked up)
Plasmin heavy chain A: EPLDDYVNTQGASLFSVTKKQLGAGSIEECAAKCEEDEEFTCRAFQYHSKEQQCVIMAENRKSSIIIRMRDVVLFEKKVYLSECKTGNGKNYRGTMSKTKNGITCQKWSSTSPHRPRFSPATHPSEGLEENYCRNPDNDPQGPWCYTTDPEKRYDYCDILECEEECMHCSGENYDGKISKTMSGLECQAWDSQSPHAHGYIPSKFPNKNLKKNYCRNPDRELRPWCFTTDPNKRWELCDIPRCTTPPPSSGPTYQCLKGTGENYRGNVAVTVSGHTCQHWSAQTPHTHNRTPENFPCKNLDENYCRNPDGKRAPWCHTTNSQVRWEYCKIPSCDSSPVSTEQLAPTAPPELTPVVQDCYHGDGQSYRGTSSTTTTGKKCQSWSSMTPHRHQKTPENYPNAGLTMNYCRNPDADKGPWCFTTDPSVRWEYCNLKKCSGTEASVVAPPPVVLLPDVETPSEEDCMFGNGKGYRGKRATTVTGTPCQDWAAQEPHRHSIFTPETNPRAGLEKNYCRNPDGDVGGPWCYTTNPRKLYDYCDVPQCAAPSFDCGKPQVEPKKCPGR
Plasmin light chain B: VVGGCVAHPHSWPWQVSLRTRFGMHFCGGTLISPEWVLTAAHCLEKSPRPSSYKVILGAHQEVNLEPHVQEIEVSRLFLEPTRKDIALLKLSSPAVITDKVIPACLPSPNYVVADRTECFITGWGETQGTFGAGLLKEAQLPVIENKVCNRYEFLNGRVQSTELCAGHLAGGTDSCQGDSGGPLVCFEKDKYILQGVTSWGLGCARPNKPGVYVRVSRFVTWIEGVMRNN
modifications: Plasmin

What was measured:
mouse myoblasts = test: In vitro mouse myoblast invasion assay across Matrigel barrier; type: cell-based; conditions: 24 hours; for effect on bFGF-stimulated mouse myoblast invasion: 0.05 units/ml plasmin or 50 mM NAC; for increase of mouse myoblast invasion across Matrigel barrier over the control: 25 ng/ml bFGF, 50 μg/ml fibronectin
Description: Mouse myoblasts were previously isolated from hind limb muscles of 4-6 week old severe combined immunodeficient (SCID) mice and clonally purified from contaminating fibroblasts (Yao et al. “Primary myoblast-mediated gene: transfer: persistent expression of human factor IX in mice” Gene Therapy 1:99-107, 1994). Myoblasts (approximately 1×10^6 cells) were plated on 6 cm tissue culture plates coated with 0.5% gelatin (Sigma, St. Louis, Mo.) and grown in growth medium consisting of Dulbecco's Modified Eagle Medium (DMEM) (Gibco BRL, Gaithersburg Md.) supplemented with 20% fetal bovine serum (FBS; Gibco) and 0.5% chick embryo extract (CEE; Gibco). All animal studies were carried out following the institutional guidelines for ethical animal use. Human myoblasts were isolated using trypsin digestion from abdominal wall or chest wall muscle biopsies, and surgery. Written consent was obtained from all patients prior to biopsy isolation as approved by the University Hospital's Institutional Regulation Board on the use of human subjects. Cells were preplated on uncoated plates for 1 hour to separate muscle fibroblasts. […] All experiments were done with myoblasts of passage 7 or lower. Myoblast migration and invasion were examined using a commercially available in vitro cell migration and invasion assay kit (Biocoat, Becton Dickinson, Franklin Lakes, N.J.) as described by Albini et al. (A rapid in vitro assay for quantitating the invasive potential of tumor cells Cancer Res 47:3239-3245, 1987). Myoblasts were grown to approximately 70% confluence, rinsed three times in serum-free DMEM, followed by incubation for 3 hours in 0.2% bovine serum albumin (BSA) in DMEM to eliminate the effects of serum. Cells were then trypsinized and collected by centrifugation. Cells were resuspended in serum-free DMEM at a density of 1×10^5 cells/ml, and 0.5 ml aliquots of cell suspension were added to the top chamber. […] Fibronectin subfragments of 45 KDa (Sigma), 120 kDa (Gibco), 63 kDa (Retronectin, Takara) and 70 KDa (Sigma) were used alone or in combination. […] For migration studies, the upper chamber membrane was coated with 0.1% gelatin and cells were allowed to migrate for 8-12 hours, while for invasion studies, the upper membrane was coated with 5 μl of Matrigel® diluted to 5 mg/ml in sterile phosphate buffered saline (PBS) and cells were allowed to invade for 24 hours. The top side of the insert membrane was scrubbed free of cells using a cotton swab and the bottom side was stained using the Leukostat-I system (Fisher Diagnostics, Pittsburgh, Pa.). The number of cells per field was counted in 10 randomly selected fields and averaged for each condition. To evaluate the effects of inactivation or activation of MMPs, aliquots (0.05 units in 50 μl PBS) of purified human plasmin (Sigma) or 50 mM N-acetyl cysteine (NAC; Sigma) were added with the cells to the top chamber of the migration assay and growth factor was added to the bottom. […] Myoblasts (5×10^4 cells/well) were stimulated with various growth factors and fibronectin, and their ability to migrate or invade through a Matrigel® barrier (panel a, mouse myoblast migration at 12 hours; panel b, mouse myoblast invasion at 24 hours). […] Bars represent mean ±SEM from a minimum of 3 separate experiments.

human myoblasts = test: In vitro human myoblast migration assay; type: cell-based; conditions: for effect on stimulated human myoblast migration: plasmin or NAC, FIG. 7c, migration induced by PDGF-BB; for stimulation of human myoblast migration over the BSA control level: 12 hour time point
Description: Mouse myoblasts were previously isolated from hind limb muscles of 4-6 week old severe combined immunodeficient (SCID) mice and clonally purified from contaminating fibroblasts (Yao et al. “Primary myoblast-mediated gene: transfer: persistent expression of human factor IX in mice” Gene Therapy 1:99-107, 1994). Myoblasts (approximately 1×10^6 cells) were plated on 6 cm tissue culture plates coated with 0.5% gelatin (Sigma, St. Louis, Mo.) and grown in growth medium consisting of Dulbecco's Modified Eagle Medium (DMEM) (Gibco BRL, Gaithersburg Md.) supplemented with 20% fetal bovine serum (FBS; Gibco) and 0.5% chick embryo extract (CEE; Gibco). All animal studies were carried out following the institutional guidelines for ethical animal use. Human myoblasts were isolated using trypsin digestion from abdominal wall or chest wall muscle biopsies, and surgery. Written consent was obtained from all patients prior to biopsy isolation as approved by the University Hospital's Institutional Regulation Board on the use of human subjects. Cells were preplated on uncoated plates for 1 hour to separate muscle fibroblasts. Approximately 95% of the cells were desmin-positive following immunohistochemical staining of representative culture samples, and were capable of differentiation into myotubes, indicating high purity of the myoblast preparation. All experiments were done with myoblasts of passage 7 or lower. Myoblast migration and invasion were examined using a commercially available in vitro cell migration and invasion assay kit (Biocoat, Becton Dickinson, Franklin Lakes, N.J.) as described by Albini et al. (A rapid in vitro assay for quantitating the invasive potential of tumor cells Cancer Res 47:3239-3245, 1987). Myoblasts were grown to approximately 70% confluence, rinsed three times in serum-free DMEM, followed by incubation for 3 hours in 0.2% bovine serum albumin (BSA) in DMEM to eliminate the effects of serum. Cells were then trypsinized and collected by centrifugation. Cells were resuspended in serum-free DMEM at a density of 1×10^5 cells/ml, and 0.5 ml aliquots of cell suspension were added to the top chamber. […] Fibronectin subfragments of 45 KDa (Sigma), 120 kDa (Gibco), 63 kDa (Retronectin, Takara) and 70 KDa (Sigma) were used alone or in combination. The growth factor concentrations used were those which could produce maximal effects as examined in the present studies by extending from values reported by Bischoff (“Chemotaxis of skeletal muscle satellite cells” Devel. Dynamics 208:505-515, 1997). For migration studies, the upper chamber membrane was coated with 0.1% gelatin and cells were allowed to migrate for 8-12 hours, while for invasion studies, the upper membrane was coated with 5 μl of Matrigel® diluted to 5 mg/ml in sterile phosphate buffered saline (PBS) and cells were allowed to invade for 24 hours. The top side of the insert membrane was scrubbed free of cells using a cotton swab and the bottom side was stained using the Leukostat-I system (Fisher Diagnostics, Pittsburgh, Pa.). The number of cells per field was counted in 10 randomly selected fields and averaged for each condition. To evaluate the effects of inactivation or activation of MMPs, aliquots (0.05 units in 50 μl PBS) of purified human plasmin (Sigma) or 50 mM N-acetyl cysteine (NAC; Sigma) were added with the cells to the top chamber of the migration assay and growth factor was added to the bottom. […] The effects of growth factors on human myoblast migration in vitro (12 hour time point) were somewhat different from those observed with mouse myoblasts. […] The greatly elevated level of migration of human myoblasts was due in part to the extremely low migration in the BSA control (basal level) of human cells compared to mouse cells. The largest effects on human myoblast migration were produced by fibronectin (100-fold), PDGF (about 62-fold), TGF-β (about 54-fold) and HGF (46-fold) over the control level, while bFGF produced only a 37-fold stimulation (FIG. 7a). […]

Row | Molecule | effect on bFGF-stimulated mouse myoblast invasion (mouse myoblasts) | effect on stimulated human myoblast migration (human myoblasts) | increase of mouse myoblast invasion across Matrigel barrier over the control (mouse myoblasts) | stimulation of human myoblast migration over the BSA control level (human myoblasts) | effect on invasion stimulated by combination of bFGF and fibronectin (mouse myoblasts; plasmin)
1 | CC(=O)N[C@@H](CS)C(=O)O [NAC, N-acetyl cysteine, reference compound] | drastically reduced such stimulatory effects to the control levels | greatly reduced | – | – | –
2 | bovine basic fibroblast growth factor [bFGF] | – | – | approximately 7 fold | 37 fold | –
3 | human serum fibronectin | – | – | 4 fold | 100 fold | –
4 | B1 | further increased the effects of bFGF | significantly increased | – | – | lowered the greatly enhanced effects
